Numbered stars: 1 amine (or outer) side, 2 acyl side, 3 side chain; on linkers, the order of the positions; unused ones are H or OH. Square brackets hold non-standard residues; d marks the D form. Peptide text beside a SMILES is read from it. * marks the point of attachment. dGly(5-dibenzosuberyl) = N[C@@H](C(=O)O)C1c2ccccc2CCc2ccccc21; X3 = O=C([C@@H](N[*:1])C(c1ccccc1)(c1ccccc1)c1ccccc1)[*:2]; Ala(1-Adamantyl) = N[C@@H](CC12CC3CC(CC(C3)C1)C2)C(=O)O; X4 = Cc1c(C)c(C)c(C[C@@H](N[*:1])C(=O)[*:2])c(C)c1C; X2 = Cc1c(C)c(C)c(C[C@H](N[*:1])C(=O)[*:2])c(C)c1C; dDip = N[C@@H](C(=O)O)C(c1ccccc1)c1ccccc1; Dip = N[C@H](C(=O)O)C(c1ccccc1)c1ccccc1; Cyclohexanecarbonyl = O=C(C1CCCCC1)*; 3Pal = N[C@@H](Cc1cccnc1)C(=O)O; Suc = O=C(CCC(=O)[*:2])[*:1]; Orn = NCCC[C@H](N)C(=O)O; NHcHex = C1CCC(N*)CC1; CO = O=C([*:1])[*:2]; Propionyl = CCC(=O)*
Key:
[1] = molecular target: T1, Endothelin receptor type B (Rattus norvegicus, UniProt P21451); experiment: Binding affinity against endothelin B receptor rat cerebellar membranes.
T1 sequence (P21451 whole entry): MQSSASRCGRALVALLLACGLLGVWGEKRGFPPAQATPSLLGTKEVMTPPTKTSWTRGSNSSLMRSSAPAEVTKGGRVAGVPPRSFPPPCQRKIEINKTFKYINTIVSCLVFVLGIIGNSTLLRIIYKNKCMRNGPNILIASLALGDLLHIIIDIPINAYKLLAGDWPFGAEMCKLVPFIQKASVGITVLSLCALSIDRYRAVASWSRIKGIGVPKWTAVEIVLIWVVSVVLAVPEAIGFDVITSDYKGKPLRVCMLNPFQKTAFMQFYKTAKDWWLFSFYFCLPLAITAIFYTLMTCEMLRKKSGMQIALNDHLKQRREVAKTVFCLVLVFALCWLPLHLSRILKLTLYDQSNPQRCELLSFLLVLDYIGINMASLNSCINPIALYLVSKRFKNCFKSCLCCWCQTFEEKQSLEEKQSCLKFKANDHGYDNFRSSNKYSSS

[2] = Relative affinities against endothelin A receptor (rabbit) and endothelin B receptor (rat); set-up: reference not given here
[3] = molecular target: T1, Endothelin receptor type B; experiment: Inhibition of SRTX-6c stimulated arachidonic acid release in CHO cells expressing rat ET- B receptors

| Compound | IC50 [1] [µM] | Ratio [2] | IC50 [3] [µM] |
| --- | --- | --- | --- |
| CC[C@H](C)[C@H](NC(=O)[C@H](CC(=O)O)NC(=O)[C@H](CC(C)C)NC(=O)[C@@H](NC(C)=O)C(c1ccccc1)c1ccccc1)C(=O)N[C@@H](CCC(=O)O)C(=O)N[C@@H](Cc1c[nH]c2ccccc12)C(=O)O (Ac-[Dip]LDIEW-OH) | > 10 | – | – |
| CC[C@H](C)[C@@H]1NC(=O)[C@H](CC(=O)O)NC(=O)[C@H](CC(C)C)NC(=O)[C@@H](Cc2ccccc2)NC(=O)[C@H](Cc2c[nH]c3ccccc23)NC(=O)[C@H]([C@@H](C)CC)NC1=O | > 10 | – | – |
| CC[C@H](C)[C@H](NC(=O)[C@H](CCCCN)NC(=O)[C@H](CC(=O)O)NC(=O)[C@H](CC(C)C)NC(=O)[C@H](NC(C)=O)C(c1ccccc1)c1ccccc1)C(=O)N[C@@H](Cc1c[nH]c2ccccc12)C(=O)O | 3.7 | – | – |
| CC[C@H](C)[C@H](NC(=O)[C@H](CC(=O)O)NC(=O)[C@H](CC(C)C)NC(=O)[C@@H](N)C(c1ccccc1)(c1ccccc1)c1ccccc1)C(=O)N[C@H](C(=O)N[C@@H](Cc1c[nH]c2ccccc12)C(=O)O)[C@@H](C)CC (H-[X3]LDIIW-OH) | 10 | – | – |
| CC[C@H](C)[C@H](NC(=O)[C@H](CC(=O)O)NC(=O)[C@H](CC(C)C)NC(=O)[C@@H](NC(C)=O)C(c1ccccc1)c1ccccc1)C(=O)N[C@H](C(=O)N[C@@H](Cc1ccc(O)cc1)C(=O)O)[C@@H](C)CC (Ac-[Dip]LDIIY-OH) | 6.1 | – | – |
| CC[C@H](C)[C@H](NC(=O)[C@H](CC(=O)O)NC(=O)[C@H](CC(C)C)NC(=O)[C@@H](NC(=O)CCC(=O)O)C(c1ccccc1)c1ccccc1)C(=O)N[C@H](C(=O)N[C@@H](Cc1c[nH]c2ccccc12)C(=O)O)[C@@H](C)CC (Suc-[Dip]LDIIW-OH) | > 10 | – | – |
| CC[C@H](C)[C@@H]1NC(=O)[C@H](CC(=O)O)NC(=O)[C@H](CC(C)C)NC(=O)[C@@H](C2c3ccccc3CCc3ccccc32)NC(=O)[C@H](Cc2c[nH]c3ccccc23)NC(=O)[C@H]([C@@H](C)CC)NC1=O | > 10 | – | – |
| CC[C@H](C)[C@H](NC(=O)[C@H](CC(=O)O)NC(=O)[C@H](CC(C)C)NC(=O)[C@H](NC(C)=O)C(c1ccccc1)c1ccccc1)C(=O)N[C@@H](Cc1ccccc1)C(=O)N[C@@H](Cc1c[nH]c2ccccc12)C(=O)O | 7.5 | – | – |
| CC[C@H](C)[C@H](NC(=O)[C@H](CC(=O)O)NC(=O)[C@H](CC(C)C)NC(=O)[C@@H](Cc1c(C)c(C)c(C)c(C)c1C)NC(C)=O)C(=O)N[C@H](C(=O)N[C@@H](Cc1c[nH]c2ccccc12)C(=O)O)[C@@H](C)CC (Ac-[X4]LDIIW-OH) | 2.4 | – | – |
| CC[C@H](C)[C@H](NC(=O)[C@H](CC(=O)O)NC(=O)[C@H](CC(C)C)NC(=O)[C@@H](NC(C)=O)C(c1ccccc1)(c1ccccc1)c1ccccc1)C(=O)N[C@H](C(=O)N[C@@H](Cc1c[nH]c2ccccc12)C(=O)O)[C@@H](C)CC (Ac-[X3]LDIIW-OH) | 5.9 | – | – |
| CC[C@H](C)[C@H](NC(=O)[C@H](CC(=O)O)NC(=O)[C@H](CC(C)C)NC(=O)[C@H](NC(C)=O)C(c1ccccc1)c1ccccc1)C(=O)N[C@H](C(=O)N[C@@H](Cc1ccccc1)C(=O)O)[C@@H](C)CC | 6.8 | – | – |
| CC[C@H](C)[C@H](NC(=O)[C@H](CC(=O)O)NC(=O)[C@H](CC(C)C)NC(=O)[C@H](N)C(c1ccccc1)c1ccccc1)C(=O)N[C@H](C(=O)N[C@@H](Cc1c[nH]c2ccccc12)C(=O)O)[C@@H](C)CC (H-[dDip]LDIIW-OH) | – | – | 9.2 |
| CC[C@H](C)[C@H](NC(=O)[C@H](CC(=O)O)NC(=O)[C@H](CC(C)C)NC(=O)[C@@H](NC(C)=O)C(c1ccccc1)c1ccccc1)C(=O)N[C@H](C(=O)N[C@@H](Cc1cccnc1)C(=O)O)[C@@H](C)CC (Ac-[Dip]LDII[3Pal]-OH) | > 10 | – | – |
| CC[C@H](C)[C@@H]1NC(=O)[C@H](CC(=O)O)NC(=O)[C@@H](NC(=O)[C@H](NC(C)=O)C(c2ccccc2)c2ccccc2)CSSC[C@@H](C(=O)N[C@@H](Cc2c[nH]c3ccccc23)C(=O)O)NC1=O | > 1 | – | – |
| CC[C@H](C)[C@H](NC(=O)[C@H](CC(=O)O)NC(=O)[C@H](CC(C)C)NC(=O)[C@@H](N)Cc1c(C)c(C)c(C)c(C)c1C)C(=O)N[C@H](C(=O)N[C@@H](Cc1c[nH]c2ccccc12)C(=O)O)[C@@H](C)CC (H-[X2]LDIIW-OH) | > 10 | – | – |
| CC[C@H](C)[C@H](NC(=O)[C@H](CC(=O)O)NC(=O)[C@H](CC(C)C)NC(=O)[C@H](NC(C)=O)C1c2ccccc2CCc2ccccc21)C(=O)N[C@H](C(=O)N[C@@H](Cc1c[nH]c2ccccc12)C(=O)O)[C@@H](C)CC (Ac-[dGly(5-dibenzosuberyl)]LDIIW-OH) | 0.015 | – | – |
| CC[C@H](C)[C@H](NC(=O)[C@H](CCC(=O)O)NC(=O)[C@H](CC(=O)O)NC(=O)[C@H](CC(C)C)NC(=O)[C@H](NC(C)=O)C(c1ccccc1)c1ccccc1)C(=O)N[C@@H](Cc1c[nH]c2ccccc12)C(=O)O (Ac-[dDip]LDEIW-OH) | 6 | – | – |
| CC[C@H](C)[C@H](NC(=O)[C@H](CC(=O)O)NC(=O)[C@H](CC(C)C)NC(=O)[C@@H](NC(C)=O)C(c1ccccc1)c1ccccc1)C(=O)N[C@@H](CCCCN)C(=O)N[C@@H](Cc1c[nH]c2ccccc12)C(=O)O (Ac-[Dip]LDIKW-OH) | 4.7 | – | – |

Continued by falling IC50 [1], values first:

| IC50 [1] [µM] | Ratio [2] | IC50 [3] [µM] | Compound |
| --- | --- | --- | --- |
| 2 | – | – | CC[C@H](C)[C@H](NC(=O)[C@H](CC(=O)O)NC(=O)[C@H](CC(C)C)NC(=O)[C@H](CC12CC3CC(CC(C3)C1)C2)NC(C)=O)C(=O)N[C@H](C(=O)N[C@@H](Cc1c[nH]c2ccccc12)C(=O)O)[C@@H](C)CC (Ac-[Ala(1-Adamantyl)]LDIIW-OH) |
| 1.6 | – | – | CC[C@H](C)[C@@H]1NC(=O)[C@H](CC(=O)O)NC(=O)[C@H](CC(C)C)NC(=O)[C@@H](C(c2ccccc2)c2ccccc2)NC(=O)[C@H](Cc2c[nH]c3ccccc23)NC(=O)[C@H]([C@@H](C)CC)NC1=O |
| 1.4 | – | – | CC[C@H](C)[C@H](NC(=O)[C@H](CC(=O)O)NC(=O)[C@H](CC(C)C)NC(=O)[C@@H](NC(C)=O)C(c1ccccc1)c1ccccc1)C(=O)N[C@H](C(=O)N[C@@H](Cc1c[nH]c2ccccc12)C(=O)O)C(C)C (Ac-[Dip]LDIVW-OH) |
| 0.74 | – | – | CC[C@H](C)[C@H](NC(=O)[C@H](CC(=O)O)NC(=O)[C@@H](Cc1ccccc1)NC(=O)[C@@H](NC(C)=O)C(c1ccccc1)c1ccccc1)C(=O)N[C@H](C(=O)N[C@@H](Cc1c[nH]c2ccccc12)C(=O)O)[C@@H](C)CC |
| 0.73 | – | – | CC[C@H](C)[C@H](NC(=O)[C@H](CC(=O)O)NC(=O)[C@H](CC(C)C)NC(=O)[C@H](NC(C)=O)C(c1ccccc1)c1ccccc1)C(=O)N[C@@H](CC(C)C)C(=O)N[C@@H](Cc1c[nH]c2ccccc12)C(=O)O |
| 0.35 | 17.8 | 0.56 | CC[C@H](C)[C@H](NC(=O)[C@H](CC(=O)O)NC(=O)[C@H](CC(C)C)NC(=O)[C@@H](NC(=O)C1CCCCC1)C(c1ccccc1)c1ccccc1)C(=O)N[C@H](C(=O)N[C@@H](Cc1c[nH]c2ccccc12)C(=O)O)[C@@H](C)CC (Cyclohexanecarbonyl-[Dip]LDIIW-OH) |
| 0.33 | – | – | CC[C@H](C)[C@H](NC(=O)[C@H](C)NC(=O)[C@H](CC(=O)O)NC(=O)[C@H](CC(C)C)NC(=O)[C@H](NC(C)=O)C(c1ccccc1)c1ccccc1)C(=O)N[C@@H](Cc1c[nH]c2ccccc12)C(=O)O |
| 0.26 | 3.8 | 0.22 | CCC(=O)N[C@H](C(=O)N[C@@H](CC(C)C)C(=O)N[C@@H](CC(=O)O)C(=O)N[C@H](C(=O)N[C@H](C(=O)N[C@@H](Cc1c[nH]c2ccccc12)C(=O)O)[C@@H](C)CC)[C@@H](C)CC)C(c1ccccc1)c1ccccc1 (Propionyl-[Dip]LDIIW-OH) |
| 0.21 | – | – | CC[C@H](C)[C@H](NC(=O)[C@H](CC1CCCCC1)NC(=O)[C@H](CC(=O)O)NC(=O)[C@H](CC(C)C)NC(=O)[C@H](NC(C)=O)C(c1ccccc1)c1ccccc1)C(=O)N[C@@H](Cc1c[nH]c2ccccc12)C(=O)O |
| 0.15 | – | – | CC[C@H](C)[C@H](NC(=O)[C@H](CC(=O)O)NC(=O)[C@H](CCCN)NC(=O)[C@@H](NC(C)=O)C(c1ccccc1)c1ccccc1)C(=O)N[C@H](C(=O)N[C@@H](Cc1c[nH]c2ccccc12)C(=O)O)[C@@H](C)CC (Ac-[Dip][Orn]DIIW-OH) |
| 0.08 | – | – | CC[C@H](C)[C@H](NC(=O)[C@H](Cc1ccc(O)cc1)NC(=O)[C@H](CC(C)C)NC(=O)[C@H](NC(C)=O)C(c1ccccc1)c1ccccc1)C(=O)N[C@H](C(=O)N[C@@H](Cc1c[nH]c2ccccc12)C(=O)O)[C@@H](C)CC |
| 0.068 | 29.4 | 0.21 | CC[C@H](C)[C@H](NC(=O)[C@H](CC(=O)O)NC(=O)[C@H](CC(C)C)NC(=O)[C@@H](NC(=O)NC1CCCCC1)C(c1ccccc1)c1ccccc1)C(=O)N[C@H](C(=O)N[C@@H](Cc1c[nH]c2ccccc12)C(=O)O)[C@@H](C)CC ({NHcHex-CO}-[Dip]LDIIW-OH) |
| 0.051 | – | – | CC[C@H](C)[C@H](NC(=O)[C@@H](NC(=O)[C@H](CC(=O)O)NC(=O)[C@H](CC(C)C)NC(=O)[C@@H](NC(C)=O)C(c1ccccc1)c1ccccc1)C(C)C)C(=O)N[C@@H](Cc1c[nH]c2ccccc12)C(=O)O (Ac-[Dip]LDVIW-OH) |
| 0.02 | – | – | Ac-FFDIIW-OH |
| 0.016 | – | – | CC[C@H](C)[C@H](NC(=O)[C@H](C)NC(=O)[C@H](CC(C)C)NC(=O)[C@@H](NC(C)=O)C(c1ccccc1)c1ccccc1)C(=O)N[C@H](C(=O)N[C@@H](Cc1c[nH]c2ccccc12)C(=O)O)[C@@H](C)CC (Ac-[Dip]LAIIW-OH) |
| 0.012 | – | – | CC[C@H](C)[C@H](NC(=O)[C@H](Cc1ccc(O)cc1)NC(=O)[C@H](CC(=O)O)NC(=O)[C@H](CC(C)C)NC(=O)[C@@H](NC(C)=O)C(c1ccccc1)c1ccccc1)C(=O)N[C@@H](Cc1c[nH]c2ccccc12)C(=O)O (Ac-[Dip]LDYIW-OH) |
